According to patent US20020115724A1, “Methods and agents for inhibiting protein aging” (priority 1985, published 2002):
Structures can show the parent of a compound that is named as a salt.

Assays:
[1] = system: diabetic New Zealand white rabbits; assay: Red blood cell deformability in long-term diabetic rabbits; assay type: in vivo, rabbit; settings: for Red Blood Cell Deformability Index: diabetic rabbits, 100 mg/kg/day oral gavage
Text: New Zealand white rabbits, with induced, long-term diabetes (12.7±3.2 months) are used to study the effects of a test compound on red blood cell (RBC) deformability. If glucose-mediated crosslinking of red blood cell components results in less deformable, more rigid membrane, then therapy should prevent this change in new red cells. Red blood cells already in existence at the initiation of therapy would be unaffected; because RBCs are replaced frequently newly formed red blood cells would be exposed to the therapy. […] The test compound is administered at a rate of 100 mg/kg/day by oral gavage.
The deformability index (DI) (filtration rate of buffer/filtrate rate of suspended RBCs; hematocrit=4.0%) is used as a measure of RBC deformability. Buffer and suspended RBCs are filtered through a 3 μ micropore membrane (Nucleopore Corp., Pleasanton, Calif.) with a pressure of […] at 37° C. A reference range for RBC deformability (2.67 to 4.84, mean 4.02±0.69) and % hemoglobin glycosylation (1.7 to 3.96, mean 2.60±0.70) is obtained from a group of normal New Zealand white rabbits (n=14), matched for age, sex and weight.
The results are given in Table III, below for diabetic New Zealand white rabbits dosed with 100 mg/kg/day aminoguanidine.

BB/Worcester rat = assay: Tail tendon collagen solubility (pepsin), BB/Worcester rats; assay type: in vivo; settings: 6 months; for Collagen Solubility: tail tendon
Procedure: Streptozotocin-diabetic male Lewis rats were treated for a 9-month time period with daily doses of aminoguanidine hydrochloride of 0, 6.25, 12.5, 25, and 50 mg/kg/day. After the treatment period, collagen in tail tendon fiber was subjected to solubility determination. Ten mg samples were incubated with gentle rocking for 5 hours at 4° C. in 5 ml of 0.5M acetic acid containing 1 mg pepsin. The samples were then centrifuged at 50,000× g for 1 hour, and the soluble and insoluble fraction separated by decanting. Each fraction was hydrolyzed in 6N HCl and total hydroxyproline measured.
The effect of aminoguanidine administration on collagen cross-linking was examined in a genetically-diabetic animal model, the BB/Worcester rat. Once the animals become diabetic, daily insulin injections are essential for survival. Glucose levels are maintained at a moderate level (250-350 mg %), much lower than in the streptozotocin-diabetic animals (>500 mg %).
Diabetic and non-diabetic controls were treated orally with aminoguanidine hydrochloride at 12.5 and 50 mg/kg/day for 6 months. Control animals were dosed with water only. Tail tendon collagen solubility was then determined by the pepsin method described in Example IX.

Laminin B1 mRNA = settings: diabetic rats; cited from earlier work

N=C(N)NN [aminoguanidine hydrochloride]
Red Blood Cell Deformability Index ([1]; 0 weeks of dosing (baseline)): 18.32 ± 6.03 | Red Blood Cell Deformability Index ([1]; 4 weeks of dosing): 7.17 ± 3.12 | Red Blood Cell Deformability Index ([1]; 8 weeks of dosing): 6.83 ± 2.97 | Red Blood Cell Deformability Index ([1]; 12 weeks of dosing): 4.64 ± 1.58 | Red Blood Cell Deformability Index ([1]; 16 weeks of dosing): 4.44 ± 1.33 | Red Blood Cell Deformability Index ([1]; 20 weeks of dosing): 4.14 ± 1.06 | effect on diabetes-induced increased deformability index ([1]; long-term diabetic rabbits, delayed treatment): to normal after 12 weeks | RBC deformability index ([1]; separate experiment, daily administration from the time of induction of diabetes): never became abnormal | prevention of the diabetes-induced fall in tail tendon collagen solubility (BB/Worcester rat; 12.5 and 50 mg/kg/day orally): prevented significantly, in a dose-dependent manner | Collagen Solubility (BB/Worcester rat; Diabetic, 12.5 mg/kg/day orally): 66.7 ± 1.2% | Collagen Solubility (BB/Worcester rat; Diabetic, 50 mg/kg/day orally): 75.9 ± 0.4% | Collagen Solubility (BB/Worcester rat; Normal, 50 mg/kg/day orally): 88.2 ± 0.2% | diabetes-induced increase in laminin mRNA in the kidney (Laminin B1 mRNA): prevents the diabetes-induced increase in laminin MRNA in the kidney
